According to patent publication US4189499A, “Lysine 4-allyloxy-3-chlorophenylacetate and method of its preparation” (priority 1979, dated 1980):
Values joined by “and” are separate entries in the source; they are usually repeats but may differ in a detail not shown here. Identical values can stand only once. “Also recorded” adds a separate entry of the source. Counter-ions that a name gives are not always drawn. Like-named read-outs stand apart in the source and are kept apart here.

Assays:
[1] = Extent of availability after different routes, intravenous administration as reference; assay type: in vivo, rabbit; settings: i.v. as reference
Experimental: (§1) The following pharmacological experimentation was carried out in order to estimate the comparative absorption and bioavailability through various administration routes in rabbits of Alclofenac acid and its lysine salt.

Solubility = assay type: physicochemical; settings: in words, solvent as stated
[2] = Pharmacokinetics from plasma levels after oral, rectal and intramuscular administration in rabbits; assay type: in vivo, rabbit; settings: for Ka / t1/2α / CL/F / k el / Cmax / Vd/F / half-life / Tmax: ± E.S.M.; for CL/F / k el / Cmax / Vd/F / half-life / Tmax: rabbit, plasma; for Cmax: read-out: Cmax; for Vd/F: read-out: Vdβ; for half-life: read-out: t1/2β; for Tmax: read-out: tmax (converted)
Experimental: as §1

[3] = cited from earlier work
[4] = Stability and hygroscopicity; assay type: physicochemical; settings: for Stability of the solution: in words; for Hygroscopicity: isolated solid
[5] = test system: rabbit dorsal long muscle; test: Local tolerability after intramuscular injection, muscle removed at 24 hours, irritation by arbitrary scores; assay type: in vivo; set-up: scale not given here
Experimental: Such a tolerability was estimated after injection of equivalent solutions of the various preparations, effected in the rabbit dorsal long muscle, removing muscle 24 hours after injection and estimating the degree of induced irritation through arbitrary scores.

[6] = General tolerability by route of administration; assay type: in vivo; settings: intravenous or intramuscular; listed as Mono-ethanolamine solution
pH of aqueous solution = assay type: physicochemical; settings: aqueous solution as prepared
[7] = intravenous route, prior knowledge; cited from earlier work
[8] = listed as Mono-ethanolamine solution
[9] = 100 mg/ml (as acid), 0.25 ml injected
[10] = 100 mg/ml (as acid), 0.5 ml injected
[11] = 131 mg/ml (as acid), 0.25 ml injected

Compound: C=CCOc1ccc(CC(=O)O)cc1Cl [Alclofenac, 4-allyloxy-3-chlorophenylacetic acid, reference compound]
- % Availability (AUC o → 4h) ([1]; P.O. 90 mg/kg, 0-4 h, 90 mg/kg, 240 min): 42.4%
- % Availability (practical AUC) ([1]; P.O. 90 mg/kg, 90 mg/kg): 84.0%
- % Availability (theoretical AUC) ([1]; P.O. 90 mg/kg, 90 mg/kg): 89.2%
- % Availability (AUC o → 2h) ([1]; Rectal 100 mg/kg, 0-2 h, 100 mg/kg, 120 min): 83.24%
- % Availability (practical AUC) ([1]; Rectal 100 mg/kg, 100 mg/kg): 105.7%
- % Availability (theoretical AUC) ([1]; Rectal 100 mg/kg, 100 mg/kg): 87.2%
- Solubility (Solubility): insoluble in the physiological fluids; also recorded: insolubility
- Ka ([2]; P.OS 90 mg/kg): 0.0146 ± 0.0018 min⁻¹
- t1/2α ([2]; P.OS 90 mg/kg): 0.85 ± 0.083333 h
- Ka ([2]; RECTAL 100 mg/kg): 0.053 ± 0.10 min⁻¹
- t1/2α ([2]; RECTAL 100 mg/kg): 0.233 ± 0.05 h
- absorption, in words ([2]; oral and rectal route, rabbits): well absorbed through the oral and rectal route
- CL/F ([2]; 100 mg/kg, RECTAL 100 mg/kg): 0.54 ± 0.04 mL/min/kg
- k el ([2]; 100 mg/kg, RECTAL 100 mg/kg): 3.83e-05 s⁻¹
- Cmax ([2]; 100 mg/kg, RECTAL 100 mg/kg): 425 ± 11.9 µg/mL
- Vd/F ([2]; 100 mg/kg, RECTAL 100 mg/kg): 0.274 ± 0.06 L/kg
- half-life ([2]; 100 mg/kg, RECTAL 100 mg/kg): 5.12 ± 0.583 h
- Tmax ([2]; 100 mg/kg, RECTAL 100 mg/kg): 1.1 h
- CL/F ([2]; po, 90 mg/kg, P.OS 90 mg/kg): 0.64 ± 0.06 mL/min/kg
- k el ([2]; po, 90 mg/kg, P.OS 90 mg/kg): 3e-05 s⁻¹
- Cmax ([2]; po, 90 mg/kg, P.OS 90 mg/kg): 358 ± 47.8 µg/mL
- Vd/F ([2]; po, 90 mg/kg, P.OS 90 mg/kg): 0.326 ± 0.045 L/kg
- half-life ([2]; po, 90 mg/kg, P.OS 90 mg/kg): 6.9 ± 0.667 h
- Tmax ([2]; po, 90 mg/kg, P.OS 90 mg/kg): 2.88 h
- antiinflammatory properties ([3]; in vivo): antiinflammatory properties
- analgesic activity ([3]; versus acetylsalicylic acid): marked analgesic activity, higher than acetylsalicylic acid

Compound: C=CCOc1ccc(CC(=O)O)cc1Cl [Alclofenac-Ethanolamine]
- Stability of the solution [4, 8]: stable
- SCORES at 24 hours, Average [5, 9]: 3
- SCORES at 24 hours, individual [5, 9]: 3 and 3.5 and 2.5
- tolerability on injection [6]: poor tolerability
- pH of solution (pH of aqueous solution; [8]): 7.5

Compound: C=CCOc1ccc(CC(=O)O)cc1Cl [Alclofenac-Methylglucose]
- Stability of the solution ([4]; listed as Methylglucamine salt): not very stable
- Hygroscopicity ([4]; listed as Methylglucamine salt): very hygroscopic
- SCORES at 24 hours, Average [5, 9]: 2
- SCORES at 24 hours, Average [5, 10]: 5.4
- SCORES at 24 hours, individual [5, 9]: 0 and 3 (2×)
- SCORES at 24 hours, individual [5, 10]: 2 and 5 and 10 and 4.5

Compound: C=CCOc1ccc(CC(=O)O)cc1Cl [sodic salt of the acid]
- tolerability of injection [7]: scarcely tolerated

Compound: C=CCOc1ccc(CC(=O)O)cc1Cl [Alclofenac-Arginine]
- Hygroscopicity ([4]; listed as Arginine salt): non-hygroscopic
- SCORES at 24 hours, Average [5, 10]: 3.9
- SCORES at 24 hours, Average [5, 11]: 1.6
- SCORES at 24 hours, individual [5, 10]: 6.5 and 2.5 and 3 and 3.5
- SCORES at 24 hours, individual [5, 11]: 1.5 and 3.5 and 3 and 0
- pH of solution (pH of aqueous solution; listed as Arginine salt): 7.7
- Solubility (Solubility; listed as Arginine salt): scarcely water soluble
